Data taken from patent publication US8394758B2, “Tumor-targeting peptides and uses thereof” (Academia Sinica, priority 2008, dated 2013).

Legend:
[1] = tested on: lung tumor xenografts, tumor neovasculature; experiment: Immuno-staining of phage (anti-M13) and blood vessels (anti-CD31) in lung tumor xenografts and normal organs; assay type: in vivo, SCID mice
From the text: The accumulation of the phage clones in tumor mass was further examined by an immuno-staining assay, using an anti-M13 phage monoclonal antibody (Amersham Biosciences, Uppsala, Sweden). Briefly, after injection of the phage clones, normal organ samples and tumor samples were obtained, each divided into two parts. Bound phage particles were released from one part of the samples and titered using bacterium ER2738. The other part of each of the samples was embedded in Optimal Cutting Temperature (OCT, Tissue-Tek, NL, USA). The OCT-embedded samples (frozen) were sectioned (5 micron) and transferred to cold PBS. The sections were fixed with acetone-methanol (1:1) on slides, washed with PBS, and immersed in a blocking buffer (1% BSA in PBS) for 1 h. Then, the slides were incubated with rat anti-mouse CD31 antibody (an antibody recognizing blood vessels; BD Pharmingen, MA, USA.) and rabbit anti-rat Ig antibody (Stressgen, Canada), and immersed in Rhodamine labeled goat anti-rabbit Ig antibody (Jackson ImmunoResearch, PA, USA). The slides were further incubated with mouse anti-M13 phage monoclonal antibody (Amersham Biosciences, Uppsala, Sweden), then with FITC-labeled goat anti-mouse Ig antibody (Jackson ImmunoResearch, PA, USA), and finally immersed in a solution containing Hoechst 33258 (Molecular Probe, OR, USA). After being washed and mounted with a mounting medium (Vector, Calif., USA), the slides were examined under a Leica Confocal Microscope (TCS-SP5-AOBS). Images of the slides were processed with the Leica Application Suite Advanced Fluorescence software.

[2] = tested on: H460 cells (lung cancer) xenografts; experiment: In vivo homing of phage clones to lung cancer xenografts, alone or with synthetic peptide (phage titer); design: species or system SCID mice; conditions: 100 μg synthetic peptide co-injected
Description: Eight minutes after the injection, the phage-treated SCID mice were perfused with 50 ml PBS to wash away phage particles unbound to tissues. Normal organs (e.g., lung, heart, brain) and tumor mass were removed from the mice, weighed, washed with PBS, and homogenized to release tissue-bound phage particles, if any. The released phage particles were titered using bacterium ER2738 (New England BioLabs, MA, USA) grown on IPTG-X-gal-containing agar plates, and amplified in the same bacterium following the manufacturer's protocol.
H460 cells (a lung cancer cell line) were injected subcutaneously (s.c.) into the dorsolateral flanks of SCID mice (4-6 weeks of age) to form lung cancer xenografts. Each of phage clones IVO 2, IVO 8, and IVO 24, displaying peptide SVSVGMKPSPRP (SEQ ID NO:1), SNPFSKPYGLTV (SEQ ID NO:3), and YPHYSLPGSSTL (SEQ ID NO:5), respectively, was injected (i.v.) into the tail veins of the mice bearing the xenografts (˜100 mm^3), either alone or with 100 μg synthetic peptides SVSVGMKPSPRP (SEQ ID NO:1), SNPFSKPYGLTV (SEQ ID NO:3), or YPHYSLPGSSTL (SEQ ID NO:5). Normal organs and tumor mass were removed from these mice and processed as described in Example 1 above. The phage titers in the normal organs and tumor mass were determined following the procedure also described in Example 1.

tumor xenografts = experiment: Histopathology of tumor tissues by H&E staining; assay type: in vivo, SCID mice; conditions: doxorubicin 1 mg/kg twice a week for four weeks
Description: Mouse body weights and tumor lengths/widths were measured twice a week with calipers. The volume of a tumor was calculated using the formula: length×(width)×0.52.

[3] = tested on: Non-small cell lung cancer xenografts; experiment: Doxorubicin levels in tumor tissue and tumor cell nuclei (spectrofluorometry); assay type: in vivo, SCID mice; conditions: 2 mg/kg doxorubicin
Description: Non-small cell lung cancer xenografts (˜300 mm^3) were induced in SCID mice following the method described in Example 2 above. These mice were treated with PIVO-2-LD, PIVO-8-LD, PIVO-24-LD, LD, and FD at a doxorubicin dose of 2 mg/kg and sacrificed 1 h, 4 h, or 24 h later. Blood samples were collected from the mice via submaxillary punctures and plasma samples were prepared therefrom. In addition, xenografts and normal organs were removed, part of them being homogenized to isolate cell nuclei. Doxorubicin was extracted either from the tumor tissue or from the nuclei following the method described in Laginha et al., Clin. Cancer Res. 11:6944-6949, 2005 and Mayer et al., J. Pharmacol. Exp. Ther. 280:1406-1414, 1997. The amount of doxorubicin was determined by spectrofluorometry at λex 485/20 nm and λcm 645/40 nm (Synergy HT Multi-Detection Microplate Reader, BioTek Instruments, Winooski, Vt. 05404 USA). Based on the amounts of doxorubicin in tumor tissues at different time points, concentration-time curves of doxorubicin were prepared and the areas under the curves from 0-48 hours (AUC0-48 hours) were determined.

Nucleus (AUC0-48 h) doxorubicin ([3]; tumor cell nuclei (bioavailable doxorubicin)) | Tumor (AUC0-48 h) doxorubicin ([3]; tumor tissue) | Compound | blocking by synthetic peptide of binding of the corresponding phage clone to lung tumor tissues [1] | inhibition by synthetic peptide of accumulation in tumor mass of the phage clone displaying the same peptide [2] | necrotic/apoptotic area (combined) in tumor xenografts (tumor xenografts)
 |  | SVSVGMKPSPRP (Tumor-Targeting Peptide) | blocked binding | inhibited accumulation of phage clone IVO 2 | 
3.68 µg·h/g | 10.23 µg·h/g | COc1cccc2c1C(=O)c1c(O)c3c(c(O)c1C2=O)C[C@@](O)(C(=O)CO)C[C@@H]3O[C@H]1C[C@H](N)[C@H](O)[C@H](C)O1 [FD, doxorubicin] |  |  | only a moderate necrotic/apoptotic area
 |  | YPHYSLPGSSTL (Tumor-Targeting Peptide) | blocked binding | inhibited accumulation | 
 |  | SNPFSKPYGLTV (Tumor-Targeting Peptide) | blocked binding | inhibited accumulation | 
